From patent US20070112013A1, “Method of modulating ion channel functional activity” (Australian National University, priority 1998, published 2007) come the findings set out here.

Assay [1] deals with HIV-1. Briefly: PCR based assay of newly synthesised HIV DNA in human monocytes and macrophages. Format: cell-based. As to conditions: 50 μM. The procedure:
Human monocytes were isolated from peripheral blood and cultured either for 24 hr (one day old monocytes) or for 7 days to allow differentiation into monocyte derived macrophages (MDM). These cells were then exposed to cell-free preparations of HIV isolates and allowed to absorb for 2 hr before complete aspiration of the medium, washing once with virus-free medium and resuspension in fresh medium. The cells were exposed to 50-10 μM HMA or DMA either 24 hr prior to infection or after infection. Subsequent HIV replication, at various times after infection, was compared in cells exposed to drugs and in cells not exposed to drugs (controls). The progression and extent of viral replication was assayed using either an HIV DNA PCR method (Fear et al, 1998) or an ELISA method to quantitate p24 in culture supernatants (Kelly et al, 1998).
(§1) Subsequent tests were carried out to establish whether there was any anti-viral activity of HMA and DMA. Two tests were performed to characterise the effects of the drugs on HIV replication in human monocytes and macrophages: a) A PCR based assay was used to detect newly synthesised DNA arising from reverse transcription of the HIV genome, an early stage in virus replication; b) An ELISA method was used to quantitate production of the viral protein p24, reflecting a later stage in the replication process.

Assay [2] concerns the target T1, Vpu ion channel (Human immunodeficiency virus type 1 group M subtype B, UniProt P05919).
T1 construct: The vpu ORF was cloned in-frame at the 3′ end of the GST gene in p2GEX to generate p2GEXVpu; GST (N, cleaved yes); made in house; host or cells: E. coli XL1-blue containing p2GEXVpu
Briefly: Vpu ion channel activity in planar lipid bilayers. The class given is biochemical, HIV-1. As to conditions: concentrations of 50-250μM. The text has this:
FIG. 6 is a graphical representation of the inhibition of Vpu ion channel activity by 5-(N,N-hexamethylene)-arniloride (HMA) in planar lipid bilayers. The three traces represent typical Vpu channel activity observed in the presence of the indicated concentrations of HMA. The solid line indicates the zero current level. Mean currents (±variance), calculated for continuous channel recordings of at least 30 seconds duration, are plotted in the graph for each of the three drug concentrations.
Purified Vpu was tested for its ability to induce channel activity in planar lipid bilayers using standard techniques as described elsewhere (Miller, 1986; and Piller et al, 1996). The solutions in the CIS and TRANS chambers were separated by a Delrin™ plastic wall containing a small circular hole of approximately 100 μm diameter across which a lipid bilayer was painted so as to form a high resistance electrical seal. Bilayers were painted from a mixture (8:2) of palrnitoyl-oleoly-phosphatidyl-ethanolamine and palmitoyl-oleoly-phosphatidyl-choline (Avanti Polar Lipids, Alabaster, Alabama) in n-decane. The solutions in the two chambers contained MES buffer (10 mM, pH 6.0) to which various NaCl or KCl concentrations were added. Currents were recorded with an Axopatch™ 200 amplifier. The electrical potential between the two chambers could be manipulated between ±200 mV (TRANS relative to grounded CIS). Aliquots containing Vpu were added to the CIS chamber either as a detergent solution or after incorporation of the protein into phospholipid vesicles. The chamber was stirred until currents were observed.

Assay [3] deals with HIV-1. The assay can be described thus: p24 ELISA of HIV virion production in human monocytes and macrophages. The class given is cell-based. Here is the method: FIG. 7 is a graphical representation of the effect of HMA on HIV virion production in monocytes and monocyte-derived macrophages. HIV in culture supernatants was assayed at various days post-infection by detection of p24 antigen using a quantitative ELISA method. Solid black bars represent HIV-infected cells exposed to 10 μM HMA. Hatched bars are control cells not exposed to drug.
Human monocytes were isolated from peripheral blood and cultured either for 24 hr (one day old monocytes) or for 7 days to allow differentiation into monocyte derived macrophages (MDM). […] The progression and extent of viral replication was assayed using either an HIV DNA PCR method (Fear et al, 1998) or an ELISA method to quantitate p24 in culture supernatants (Kelly et al, 1998).
as §1

For assay [4], the target named is T1, Vpu ion channel. Briefly: Bio-assay for Vpu channel blockers: growth of E. coli XL1-blue expressing Vpu on plates lacking adenine. Format: cell-based, HIV-1. Conditions: XL1-blue E. coli containing pPL-Vpu, medium lacking adenine, 37° C. Here is the method:
FIG. 5 is a graphical representation of the screening of drugs for potential Vpu channel blockers. […] Numbers 6-11 are located at the sites of application of various drugs being tested, which were applied in 3μl drops and allowed to soak into the agarose. The plate was then incubated at 37° C. for 48hr prior to being photographed. The background grey shade corresponds to areas of no bacterial growth. The bright circular area around “10” represents bacterial cell growth as a result of application of adenine at that location (positive control).
As part of a search for drugs that block the Vpu ion channel, a novel bio-assay was developed to facilitate the screening process which would be prohibitively slow if performed in the bilayer assay (Ewart et al, 1996). This bio-assay is based on the observation that expression of Vpu in E.coli results in an active Vpu channel located in the plasmalemma that dissipates the transmembrane sodium gradient. As a consequence of this Vpu channel activity, metabolites whose accumulation within the cells is mediated by a sodium dependent co-transporter (for example proline or adenine) leak out of the cell faster than they can be synthesised so that the metabolites' intracellular levels become limiting for growth of the cell. Thereby, an E. coli cell expressing Vpu is unable to grow in minimal drop-out media lacking adenine or proline. However, in the presence of a drug that blocks the Vpu channel, the cell is once again able to re-establish its transmembrane sodium gradient—due to the action of other ion pumps in the membrane—and the leakage of metabolites is prevented enabling growth.
It was observed that, due to an uncharacterised mutation in the adenine synthesis pathway, growth of E. coli cells of the XL1-blue strain expressing Vpu at 37° C. was dependant on the presence of adenine in the medium. […]

Another assay deals with HIV. The assay can be described thus: Effect on HIV replication (test not specified). Format: cell-based.

SMILES strings stand for the structures.

T1 sequence (P05919 whole entry): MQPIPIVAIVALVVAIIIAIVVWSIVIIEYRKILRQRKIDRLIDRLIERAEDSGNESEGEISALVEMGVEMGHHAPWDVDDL

For the molecule `CN(C)c1nc(N)c(C(=O)N=C(N)N)nc1Cl` [DMA, 5-(N,N-Dimethyl)-Amiloride], the “synthesis of HIV DNA in the cells” value with HIV-1 [1] was “inhibited synthesis of HIV DNA”. For the same molecule, the “inhibition of Vpu ion-channel activity” value against Vpu ion channel [2] is recorded as “inhibit channel activity, though not as potently as HMA”. For the same molecule, the “HIV virion synthesis (p24 ELISA)” value in the assay on HIV-1 [3] (50 μM, data not shown) was “clear inhibition of HIV virion synthesis”.
On to `NC(N)=NC(=O)c1nc(Cl)c(N2CCCCCC2)nc1N` [HMA, 5-(N,N-Hexamethylene)-Amiloride], for which the “halo of bacterial growth around the site of application (inhibition of Vpu channel)” value on Vpu ion channel [4] was “a halo of growth”; on Vpu ion channel [4] (listed as 5-(N,N-hexamethylene)-anmiloride) it was “smaller halo of bacterial growth”. In addition, at Vpu ion channel [2], the “inhibition of Vpu ion-channel activity” value is reported as “block ion flow through the channel”. For the same molecule, the “HIV virion synthesis (p24 ELISA)” value with HIV-1 [3] (10 μM, monocytes (FIG. 7A) and macrophages (FIG. 7B)) is listed as “clear inhibition of HIV virion synthesis”.
On to `N=C(N)NC(=O)c1nc(Cl)c(N)nc1N` [amiloride, reference compound], for which the “halo of bacterial growth around the site of application (inhibition of Vpu channel)” value on Vpu ion channel [4] was “did not produce a halo of bacterial growth”. Moreover, the “inhibition of Vpu ion-channel activity” value against Vpu ion channel [2] was “not active as a channel blocker”. Besides, in the assay with HIV, the “effect on HIV replication” value is reported as “no effect on HIV replication”.
